Measurements taken from patent US11584714B2 (priority 2018, dated 2023).
Where two headings read alike, the source gives them in different places.

How the values were obtained:
[1] = molecular target: MASP-2 (Homo sapiens (Human), UniProt O00187); test: MASP-2 inhibition (Ki); type: biochemical
[2] = molecular target: Thrombin (Homo sapiens (Human), UniProt P00734); test: Thrombin inhibition (Ki); type: biochemical
[3] = molecular target: α-chymotrypsin (Bos taurus (Bovine), UniProt P00766, DEL14-15/DEL147-148); conditions: cited from earlier work

Sequence of MASP-2 (O00187 16-686): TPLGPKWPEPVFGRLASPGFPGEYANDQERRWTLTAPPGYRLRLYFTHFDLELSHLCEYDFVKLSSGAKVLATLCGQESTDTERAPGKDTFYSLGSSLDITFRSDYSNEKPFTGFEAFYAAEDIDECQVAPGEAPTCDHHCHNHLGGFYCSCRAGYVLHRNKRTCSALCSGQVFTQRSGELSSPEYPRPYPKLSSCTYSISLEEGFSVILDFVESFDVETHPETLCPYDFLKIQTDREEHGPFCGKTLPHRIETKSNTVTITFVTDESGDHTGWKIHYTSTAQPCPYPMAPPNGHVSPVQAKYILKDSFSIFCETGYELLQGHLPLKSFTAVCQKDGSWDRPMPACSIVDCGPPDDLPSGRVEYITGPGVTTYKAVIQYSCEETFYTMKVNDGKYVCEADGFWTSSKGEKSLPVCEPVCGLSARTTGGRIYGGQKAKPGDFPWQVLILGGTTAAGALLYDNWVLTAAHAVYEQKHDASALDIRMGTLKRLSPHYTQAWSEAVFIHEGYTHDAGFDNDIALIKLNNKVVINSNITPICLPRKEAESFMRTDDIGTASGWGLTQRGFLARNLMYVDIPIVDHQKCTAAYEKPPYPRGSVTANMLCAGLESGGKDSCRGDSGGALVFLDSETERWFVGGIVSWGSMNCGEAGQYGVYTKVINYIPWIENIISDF

With Nc1cc(OC(=O)c2ccco2)nn1S(=O)(=O)c1ccc(F)cc1 [compound 44] the Ki [1] was less than 10 µM and the Ki ([2]; read-out: Thrombin Ki) was 25 to 100 µM.

Cc1cccc2c(=O)oc(-c3ccccc3Cl)nc12 [compound 18] gave a Ki [1] of less than 10 µM and a Ki ([2]; read-out: Thrombin Ki) of less than 10 µM.

For O=c1oc(-c2ccco2)nc2cc(Cl)ccc12 [compound 11], the Ki [1] was less than 10 µM and the “Thrombin Ki (μM)” value [2] was “No Activity”.

With Cc1c(/N=C/c2ccc(OC(=O)c3ccco3)cc2)c(=O)n(-c2ccccc2)n1C [compound 34] the Ki [1] was less than 10 µM and the Ki ([2]; read-out: Thrombin Ki) was 25 to 100 µM.

In the case of O=C(O)c1cc(N2N=C(C(F)(F)F)/C(=C\C=C\c3ccco3)C2=O)ccc1Cl [compound 16], the Ki [1] is reported as 25 to 100 µM and the “Thrombin Ki (μM)” value [2] is reported as “No activity”.

COc1ccccc1C1=N/C(=C\c2cc(OC)c(OC)c(OC)c2)C(=O)O1 [compound 4] showed a Ki [1] of less than 10 µM and a Ki ([2]; read-out: Thrombin Ki) of 25 to 100 µM.

With N=C(N)c1ccc2ccccc2c1 [compound 53] the Ki [1] was less than 10 µM and the Ki ([2]; read-out: Thrombin Ki) was 10 to 25 µM.

O=Cc1ccc(OC(=O)c2ccco2)cc1 [compound 21] gave a Ki [1] of less than 10 µM and a Ki ([2]; read-out: Thrombin Ki) of less than 10 µM.

CCc1cc2c(=O)oc(-c3ccccc3C)nc2s1 [compound 43] gave a Ki [1] of less than 10 µM and a Ki ([2]; read-out: Thrombin Ki) of 25 to 100 µM.

Work on Cc1sc2nc(-c3ccccc3F)oc(=O)c2c1C [compound 42] yielded a Ki [1] of less than 10 µM and a Ki ([2]; read-out: Thrombin Ki) of 25 to 100 µM.

For MeO-Suc-Ala-Ala-ProboroPhe-OH, the Ki [3] is listed as 0.00016 µM.

With N=C(N)c1ccc(N)cc1 [compound 47] the Ki [1] was 25 to 100 µM and the “Thrombin Ki (μM)” value [2] was “No activity”.

O=C(NNC(=O)c1cc2ccccc2cc1O)c1ccco1 [compound 7] showed a Ki [1] of less than 10 µM and a Ki ([2]; read-out: Thrombin Ki) of less than 10 µM.

With CC(=O)Nc1ccc(OC(=O)c2ccccc2NC(=O)c2ccccc2Br)cc1 [compound 33] the Ki [1] was less than 10 µM and the Ki ([2]; read-out: Thrombin Ki) was less than 10 µM.

O=c1[nH]c2ccccc2c(=O)o1 [compound 26] gave a Ki [1] of less than 10 µM and a Ki [2] of 25 to 100 µM.

For CC(=O)c1ccc(OC(=O)c2ccco2)cc1 [compound 41], the Ki [1] was less than 10 µM and the “Thrombin Ki (μM)” value [2] was “No activity”.

O=C(Oc1cccc([N+](=O)[O-])c1)c1ccco1 [compound 27] gave a Ki [1] of less than 10 µM and a Ki ([2]; read-out: Thrombin Ki) of 25 to 100 µM.

In the case of O=C(O)C1Nc2c(O)cc(Cl)c([N+](=O)[O-])c2C2C=CCC12 (stereo not shown) [compound 22], the Ki [1] is reported as 10 to 25 µM and the “Thrombin Ki (μM)” value [2] is reported as “No Activity”.

In the case of O=C(c1cccc2ccccc12)n1cccn1 [compound 32], the Ki [1] is reported as less than 10 µM and the “Thrombin Ki (μM)” value [2] is reported as “No activity”.

Cc1cc(=O)oc2cc(OC(=O)c3ccco3)ccc12 [compound 12] gave a Ki [1] of less than 10 µM and a Ki ([2]; read-out: Thrombin Ki) of less than 10 µM.

In the case of O=c1oc(-c2ccco2)nc2scc(-c3cccs3)c12 [compound 19], the Ki [1] is reported as less than 10 µM and the Ki ([2]; read-out: Thrombin Ki) is reported as 25 to 100 µM.

With COc1cc(/C=N/NC(=O)Cc2nnc(N)s2)ccc1OC(=O)c1ccco1 [compound 31] the Ki [1] was less than 10 µM and the “Thrombin Ki (μM)” value [2] was “No activity”.

With O=C(O)c1ccc2c(c1)C1C=CCC1C(C(=O)O)N2 (stereo not shown) [compound 28] the Ki [1] was 25 to 100 µM and the “Thrombin Ki (μM)” value [2] was “No activity”.

For CN(C)C(=S)Nc1ccccc1C(=O)O [compound 25], the Ki [1] was 25 to 100 µM and the “Thrombin Ki (μM)” value [2] was “No activity”.

O=C(Nc1nc[nH]n1)c1cccc(I)c1 [compound 36] gave a Ki [1] of less than 10 µM and a Ki ([2]; read-out: Thrombin Ki) of 25 to 100 µM.

With CCOC(=O)c1ccc2c(c1)C1C=CCC1C(C(=O)O)N2 (stereo not shown) [compound 13] the Ki [1] was 25 to 100 µM and the “Thrombin Ki (μM)” value [2] was “No activity”.

With Cc1ccc(/C=C2\N=C(c3ccccc3F)OC2=O)o1 [compound 2] the Ki [1] was less than 10 µM and the Ki ([2]; read-out: Thrombin Ki) was 25 to 100 µM.

Work on COc1ccc(S(=O)(=O)n2nc(OC(=O)c3ccco3)cc2N)cc1 [compound 40] yielded a Ki [1] of less than 10 µM and a Ki ([2]; read-out: Thrombin Ki) of less than 10 µM.

Cc1ccccc1C1=N/C(=C\c2ccco2)C(=O)O1 [compound 1] showed a Ki [1] of less than 10 µM and a Ki ([2]; read-out: Thrombin Ki) of less than 10 µM.

O=C1NC(=S)NC(=O)C1=C/C=C/c1ccco1 [compound 29] showed a Ki [1] of less than 10 µM and a Ki ([2]; read-out: Thrombin Ki) of 25 to 100 µM.

N#Cc1ccc(OC(=O)c2ccc(Br)o2)cc1 [compound 45] showed a Ki [1] of less than 10 µM and a Ki ([2]; read-out: Thrombin Ki) of 25 to 100 µM.

For C/C=C/C=C/C(=O)Nc1ccccc1C(=O)O [compound 37], the Ki [1] was 25 to 100 µM and the “Thrombin Ki (μM)” value [2] was “No activity”.

With COC(=O)c1cn(C(=O)c2cc(OC)cc(OC)c2)nc1N [compound 24] the Ki [1] was less than 10 µM and the Ki ([2]; read-out: Thrombin Ki) was 10 to 25 µM.

For Nc1nc2ccccc2[nH]1 [compound 46], the Ki [1] was 25 to 100 µM and the “Thrombin Ki (μM)” value [2] was “No activity”.

For Cc1c(/N=C/c2ccc(OC(=O)c3ccccn3)cc2)c(=O)n(-c2ccccc2)n1C [compound 17], the Ki [1] was less than 10 µM and the Ki ([2]; read-out: Thrombin Ki) was 25 to 100 µM.

Compound O=c1oc(-c2ccccc2[N+](=O)[O-])nc2ccccc12 [compound 14] has a Ki [1] of less than 10 µM and a Ki ([2]; read-out: Thrombin Ki) of less than 10 µM.

For O=c1oc(-c2cccs2)nc2ccccc12 [compound 10], the Ki [1] was less than 10 µM and the Ki ([2]; read-out: Thrombin Ki) was 25 to 100 µM.

In the case of CC(=O)c1ccc2c(c1)C1C=CCC1C(C(=O)O)N2 (stereo not shown) [compound 30], the Ki [1] is reported as 25 to 100 µM and the “Thrombin Ki (μM)” value [2] is reported as “No activity”.

With COc1cccc2c1NC(C(=O)O)C1CC=CC21 (stereo not shown) [compound 15] the Ki [1] was 25 to 100 µM and the “Thrombin Ki (μM)” value [2] was “No activity”.

In the case of Cc1ccc(S(=O)(=O)n2nc(OC(=O)c3ccco3)cc2N)cc1 [compound 39], the Ki [1] is reported as less than 10 µM and the Ki ([2]; read-out: Thrombin Ki) is reported as 10 to 25 µM.
